Laboratory results taken from patent US10106544B2, “1,2-dihydro-3H-pyrrolo[1,2-C]imidazol-3-one derivatives and their use as antibacterial agents” (priority 2014, dated 2018).
Converted amounts (≈) assume the structure as drawn. Read-outs that look alike come from different tables or passages of the source.

Legend:
Experiment in all cases: Bacterial growth minimal inhibitory concentration (microdilution, cation-adjusted Mueller-Hinton Broth)
Assay type in all cases: cell-based
E. coli ATCC25922 = conditions: for MIC: Escherichia coli
Method in brief: (§1)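 Broth microdilution in cation-adjusted Mueller-Hinton Broth per CLSI M7-A7, MIC in mg/L. K. pneumoniae A-651 is multiply resistant, including to quinolones. E. coli ATCC25922 and P. aeruginosa ATCC27853 are quinolone-sensitive.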

K. pneumoniae A-651 = conditions: for MIC: Klebsiella pneumoniae
Method in brief: as §1

P. aeruginosa ATCC27853 = conditions: for MIC: Pseudomonas aeruginosa
Method in brief: as §1

[1] = ATCC25922, quinolone-sensitive strain, read-out: MIC for E. coli ATCC25922
[2] = A651, multiply-resistant strain (in particular quinolone-resistant), read-out: MIC for K. Pneumoniae A-651
[3] = ATCC27853, quinolone-sensitive strain, read-out: MIC for P. aeruginosa ATCC27853

SMILES | MIC (E. coli ATCC25922; [1]) [µg/mL] | MIC (K. pneumoniae A-651; [2]) [µg/mL] | MIC (P. aeruginosa ATCC27853; [3]) [µg/mL] | also measured
C[C@@](CCN1Cc2cc(C#Cc3ccc(C(=O)CO)cc3)cn2C1=O)(C(=O)NO)S(C)(=O)=O [Example 45, (R)-N-hydroxy-4-(6-((4-(2-hydroxyacetyl)phenyl)ethynyl)-3-oxo-1H-pyrrolo[1,2-c]imidazol-2(3H)-yl)-2-methyl-2-(methylsulfonyl)butanamide] | 0.25 (≈ 0.528 µM) | 1 (≈ 2.11 µM) | 4 (≈ 8.45 µM) | 
CN(C)CC#CC#Cc1cc2n(c1)C(=O)N(CC[C@](C)(C(=O)NO)S(C)(=O)=O)C2 [Example 46, (R)-4-(6-(5-(dimethylamino)penta-1,3-diyn-1-yl)-3-oxo-1H-pyrrolo[1,2-c]imidazol-2(3H)-yl)-N-hydroxy-2-methyl-2-(methylsulfonyl)butanamide] | 1 (≈ 2.38 µM) | 2 (≈ 4.76 µM) | 4 (≈ 9.51 µM) | 
COC(=O)c1ccc(-c2cc3n(c2)C(=O)N(CC[C@](C)(C(=O)NO)S(C)(=O)=O)C3)c(F)c1 [Example 47, methyl (R)-3-fluoro-4-(2-(4-(hydroxyamino)-3-methyl-3-(methylsulfonyl)-4-oxobutyl)-3-oxo-2,3-dihydro-1H-pyrrolo[1,2-c]imidazol-6-yl)benzoate] | ≤ 0.063 | 0.25 (≈ 0.535 µM) | 8 (≈ 17.1 µM) | 
C[C@@](CCN1Cc2cc(-c3ccc(Cl)cc3F)cn2C1=O)(C(=O)NO)S(C)(=O)=O [Example 48, (R)-4-(6-(4-chloro-2-fluorophenyl)-3-oxo-1H-pyrrolo[1,2-c]imidazol-2(3H)-yl)-N-hydroxy-2-methyl-2-(methylsulfonyl)butanamide] | ≤ 0.063 | 0.25 (≈ 0.563 µM) | 1 (≈ 2.25 µM) | 
CCOc1ccc(-c2cc3n(c2)C(=O)N(CC[C@](C)(C(=O)NO)S(C)(=O)=O)C3)c(Cl)c1 [Example 49, (R)-4-(6-(2-chloro-4-ethoxyphenyl)-3-oxo-1H-pyrrolo[1,2-c]imidazol-2(3H)-yl)-N-hydroxy-2-methyl-2-(methylsulfonyl)butanamide] | ≤ 0.063 | 0.125 (≈ 0.266 µM) | 4 (≈ 8.51 µM) | 
COc1ccc(-c2cc3n(c2)C(=O)N(CC[C@](C)(C(=O)NO)S(C)(=O)=O)C3)c(Cl)c1 [Example 52, (R)-4-(6-(2-chloro-4-methoxyphenyl)-3-oxo-1H-pyrrolo[1,2-c]imidazol-2(3H)-yl)-N-hydroxy-2-methyl-2-(methylsulfonyl)butanamide] | ≤ 0.063 | ≤ 0.063 | 2 (≈ 4.39 µM) | 
C[C@@](CCN1Cc2cc(-c3ccc(C(F)(F)F)cc3F)cn2C1=O)(C(=O)NO)S(C)(=O)=O [Example 53, (R)-4-(6-(2-fluoro-4-(trifluoromethyl)phenyl)-3-oxo-1H-pyrrolo[1,2-c]imidazol-2(3H)-yl)-N-hydroxy-2-methyl-2-(methylsulfonyl)butanamide] | 0.25 (≈ 0.524 µM) | 0.25 (≈ 0.524 µM) | 8 (≈ 16.8 µM) | 
C[C@@](CCN1Cc2cc(-c3ccc(F)c(F)c3F)cn2C1=O)(C(=O)NO)S(C)(=O)=O [Example 54, (R)-N-hydroxy-2-methyl-2-(methylsulfonyl)-4-(3-oxo-6-(2,3,4-trifluorophenyl)-1H-pyrrolo[1,2-c]imidazol-2(3H)-yl)butanamide] | 0.125 (≈ 0.281 µM) | 1 (≈ 2.25 µM) | 1 (≈ 2.25 µM) | 
COc1ccc(-c2cc3n(c2)C(=O)N(CC[C@](C)(C(=O)NO)S(C)(=O)=O)C3)c(F)c1F [Example 55, (R)-4-(6-(2,3-difluoro-4-methoxyphenyl)-3-oxo-1H-pyrrolo[1,2-c]imidazol-2(3H)-yl)-N-hydroxy-2-methyl-2-(methylsulfonyl)butanamide] | 0.125 (≈ 0.273 µM) | 1 (≈ 2.19 µM) | 4 (≈ 8.74 µM) | 
C[C@@](CCN1Cc2cc(C#CC#CC3(CO)CCC3)cn2C1=O)(C(=O)NO)S(C)(=O)=O [Example 56, (R)-N-hydroxy-4-(6-((1-(hydroxymethyl)cyclobutyl)buta-1,3-diyn-1-yl)-3-oxo-1H-pyrrolo[1,2-c]imidazol-2(3H)-yl)-2-methyl-2-(methylsulfonyl)butanamide] | 0.25 (≈ 0.559 µM) | 1 (≈ 2.23 µM) | 2 (≈ 4.47 µM) | 
C[C@@](CCN1Cc2cc(C#CC#CC3(CO)COC3)cn2C1=O)(C(=O)NO)S(C)(=O)=O [Example 57] |  |  |  | MIC for E. coli ATCC25922 (E. coli ATCC25922; quinolone-sensitive strain): 1 µg/mL; MIC for K. Pneumoniae A-651 (K. pneumoniae A-651; multiply-resistant strain (in particular quinolone-resistant)): 2 µg/mL; MIC for P. aeruginosa ATCC27853 (P. aeruginosa ATCC27853; quinolone-sensitive strain): 4 µg/mL
C[C@@](CCN1Cc2cc(C#CC#CCNS(C)(=O)=O)cn2C1=O)(C(=O)NO)S(C)(=O)=O [Example 58, (R)-N-hydroxy-2-methyl-4-(6-(5-(methylsulfonamido)penta-1,3-diyn-1-yl)-3-oxo-1H-pyrrolo[1,2-c]imidazol-2(3H)-yl)-2-(methylsulfonyl)butanamide] | 4 (≈ 8.5 µM) | 8 (≈ 17 µM) | 4 (≈ 8.5 µM) | 
CC(C)(C)OC(=O)N1CC(O)(c2ccc(C#Cc3cc4n(c3)C(=O)N(CC[C@](C)(C(=O)NO)S(C)(=O)=O)C4)cc2)C1 [Example 59, tert-butyl (R)-3-hydroxy-3-(4-((2-(4-(hydroxyamino)-3-methyl-3-(methylsulfonyl)-4-oxobutyl)-3-oxo-2,3-dihydro-1H-pyrrolo[1,2-c]imidazol-6-yl)ethynyl)phenyl)azetidine-1-carboxylate] | 1 (≈ 1.7 µM) | 1 (≈ 1.7 µM) | 8 (≈ 13.6 µM) | 
C[C@]1(CO)C[C@@H]1C#CC#Cc1cc2n(c1)C(=O)N(CC[C@](C)(C(=O)NO)S(C)(=O)=O)C2 [Example 61, (R)-N-hydroxy-4-(6-(((1R,2S)-2-(hydroxymethyl)-2-methylcyclopropyl)buta-1,3-diyn-1-yl)-3-oxo-1H-pyrrolo[1,2-c]imidazol-2(3H)-yl)-2-methyl-2-(methylsulfonyl)butanamide] | 0.25 (≈ 0.559 µM) | 0.25 (≈ 0.559 µM) | 0.25 (≈ 0.559 µM) | 
C[C@@](CCN1Cc2cc(C#CC#CC3CN(C(=O)CO)C3)cn2C1=O)(C(=O)NO)S(C)(=O)=O [Example 62, (R)-N-hydroxy-4-(6-((1-(2-hydroxyacetyl)azetidin-3-yl)buta-1,3-diyn-1-yl)-3-oxo-1H-pyrrolo[1,2-c]imidazol-2(3H)-yl)-2-methyl-2-(methylsulfonyl)butanamide] | 1 (≈ 2.1 µM) | 4 (≈ 8.39 µM) | 1 (≈ 2.1 µM) | 
C[C@@](CCN1Cc2cc(C#CC#CCC3(O)COC3)cn2C1=O)(C(=O)NO)S(C)(=O)=O [Example 63, (R)-N-hydroxy-4-(6-(5-(3-hydroxyoxetan-3-yl)penta-1,3-diyn-1-yl)-3-oxo-1H-pyrrolo[1,2-c]imidazol-2(3H)-yl)-2-methyl-2-(methylsulfonyl)butanamide] | 2 (≈ 4.45 µM) | 4 (≈ 8.9 µM) | 4 (≈ 8.9 µM) | 
C[C@@](CCN1Cc2cc(C#CC#CC3(O)CCOCC3)cn2C1=O)(C(=O)NO)S(C)(=O)=O [Example 64, (R)-N-hydroxy-4-(6-((4-hydroxytetrahydro-2H-pyran-4-yl)buta-1,3-diyn-1-yl)-3-oxo-1H-pyrrolo[1,2-c]imidazol-2(3H)-yl)-2-methyl-2-(methylsulfonyl)butanamide] | 4 (≈ 8.63 µM) | 8 (≈ 17.3 µM) | 4 (≈ 8.63 µM) | 
C[C@@](CCN1Cc2cc(C#CC#C[C@@H]3CC[C@@H](N)CO3)cn2C1=O)(C(=O)NO)S(C)(=O)=O [Example 65, (R)-4-(6-(((2S,5R)-5-aminotetrahydro-2H-pyran-2-yl)buta-1,3-diyn-1-yl)-3-oxo-1H-pyrrolo[1,2-c]imidazol-2(3H)-yl)-N-hydroxy-2-methyl-2-(methylsulfonyl)butanamide] | 2 (≈ 4.32 µM) | 8 (≈ 17.3 µM) | 1 (≈ 2.16 µM) | 
C[C@@](CCN1Cc2cc(C#Cc3ccc(C4(N)CC4)s3)cn2C1=O)(C(=O)NO)S(C)(=O)=O [Example 68, (R)-4-(6-((5-(1-aminocyclopropyl)thiophen-2-yl)ethynyl)-3-oxo-1H-pyrrolo[1,2-c]imidazol-2(3H)-yl)-N-hydroxy-2-methyl-2-(methylsulfonyl)butanamide] | 0.125 (≈ 0.262 µM) | 0.125 (≈ 0.262 µM) | 1 (≈ 2.1 µM) | 
C[C@@](CCN1Cc2cc(C#Cc3ccc(C4(N)COC4)cc3)cn2C1=O)(C(=O)NO)S(C)(=O)=O [Example 69, (R)-4-(6-((4-(3-aminooxetan-3-yl)phenyl)ethynyl)-3-oxo-1H-pyrrolo[1,2-c]imidazol-2(3H)-yl)-N-hydroxy-2-methyl-2-(methylsulfonyl)butanamide] | 0.5 (≈ 1.03 µM) | 2 (≈ 4.11 µM) | 2 (≈ 4.11 µM) | 
C[C@@](CCN1Cc2cc(C#Cc3ccc(C4(CO)COC4)cc3)cn2C1=O)(C(=O)NO)S(C)(=O)=O [Example 70, (R)-N-hydroxy-4-(6-((4-(3-(hydroxymethyl)oxetan-3-yl)phenyl)ethynyl)-3-oxo-1H-pyrrolo[1,2-c]imidazol-2(3H)-yl)-2-methyl-2-(methylsulfonyl)butanamide] | 1 (≈ 1.99 µM) | 2 (≈ 3.99 µM) | 2 (≈ 3.99 µM) | 
C[C@@](CCN1Cc2cc(C#Cc3ccc(NC(=O)CO)cc3)cn2C1=O)(C(=O)NO)S(C)(=O)=O [Example 71, (R)-N-hydroxy-4-(6-((4-(2-hydroxyacetamido)phenyl)ethynyl)-3-oxo-1H-pyrrolo[1,2-c]imidazol-2(3H)-yl)-2-methyl-2-(methylsulfonyl)butanamide] | 0.25 (≈ 0.512 µM) | 1 (≈ 2.05 µM) | 1 (≈ 2.05 µM) | 
C[C@@](CCN1Cc2cc(C#Cc3ccc(C4(N)CC4)cc3)cn2C1=O)(C(=O)NO)S(C)(=O)=O [Example 72, (R)-4-(6-((4-(1-aminocyclopropyl)phenyl)ethynyl)-3-oxo-1H-pyrrolo[1,2-c]imidazol-2(3H)-yl)-N-hydroxy-2-methyl-2-(methylsulfonyl)butanamide] |  |  |  | MIC (E. coli ATCC25922; ATCC25922, read-out: MIC for E. coli ATCC25922): 0.125 µg/mL (≈ 0.266 µM); MIC (K. pneumoniae A-651; A651, read-out: MIC for K. Pneumoniae A-651): 0.25 µg/mL (≈ 0.531 µM); MIC (P. aeruginosa ATCC27853; ATCC27853, read-out: MIC for P. aeruginosa ATCC27853): 0.5 µg/mL (≈ 1.06 µM)
